target: steroid 5α-reductase; test: in vitro steroid 5α-reductase inhibitory activity using ventral prostate tissue from male rats; assay type: biochemical; settings: rat ventral prostate particulate; [3H]-testosterone substrate, pH 6.5, 37° C., 30 minutes
Description: The compounds of the formula (I) may be tested in vitro for steroid 5α-reductase inhibitory activity using prostate tissue from rats or humans as follows:
(i) The compounds of the formula (I) may be tested for their potency in inhibiting rat steroid 5α-reductase using ventral prostate tissue from male rats. In determining inhibitory potency against rat prostatic 5α-reductase the following procedure was employed:
Rat prostates were minced into small pieces. The tissue was homogenised in Buffer A (20 mM sodium phosphate, pH 6.5, buffer containing 0.32M sucrose and 1 mM dithiothreitol) with a Brinkman Polytron (Kinematica, Luzern, GmBH), and then homogenised with a motor driven (1000 rpm) Potter Elvehjem (teflon-to-glass) homogeniser. Prostate particles were obtained by centrifugation at 105,000 G for 60 minutes. The pellet was washed in 4 volumes of Buffer A and recentrifuged at 105,000 G. The resulting pellet was dispersed in Buffer A (1 ml per g of prostate tissue originally used) with a motor driven Potter Elvehjem homogeniser as described above. The particulate suspension was stored as 1 ml samples at -70° C.
The following components, dissolved in Buffer B (40 mM sodium phosphate buffer, pH 6.5), were added to test tubes: 500 μl of [^3 H]-testosterone (1 μCi, 1 nmol; Du Pont, NEN Research Products, Stevenage, U.K.), 100 μl of 0.5 mM NADPH, a compound of the formula (I) dissolved in 5 μl of dimethyl sulphoxide, and Buffer B to give a final reaction volume of 1 ml. The mixture was warmed to 37° C. and the reaction started by addition of an aliquot of prostate particulate suspension. The reaction mixture was incubated at 37° C. for 30 minutes and then quenched by addition with vigorous mixing of 2 ml of ethyl acetate containing 20 μg each of testosterone and 5α-dihydrotestosterone as carriers. The aqueous and organic layers were separated by centrifugation at 2000 G for 10 minutes. The organic layer was transferred to a second test tube and evaporated to dryness under nitrogen. The residue was dissolved in 50-80 μl of absolute ethanol and spotted onto a silica gel 60 F254 TLC plate (E. Merck, Darmstadt, Germany) and developed in chloroform:acetone (185:15).
The radiochemical content in the bands of the substrate (testosterone) and the product (5α-dihydrotestosterone) were determined with a RITA Radio TLC Analyser (Raytest Instruments Ltd., Sheffield, U.K.). The percent of recovered radiolabel converted to 5α-dihydrotestosterone was calculated and used to determine enzyme activity. All incubations were conducted so that no more than 15% of substrate (testosterone) was converted to product.
The experimentally obtained data for a range of inhibitor concentrations was computer fitted to a sigmoidal dose-response curve and concentrations of compound giving 50% inhibition of 5α-reductase activity (IC50 's) were calculated using a SIGFIT program (De Lean, A., Munson, P. J. and Rodbard, D., American Journal of Physiology, 235, E97 (1978)).
A selection of compounds of the formula (I) was tested in vitro for steroid 5α-reductase inhibitory activity using ventral prostate tissue from male rats according to the procedure outlined on pages 35 to 37 of the description.

Row | Structure (SMILES) | IC50
1 | O=C(O)CCCCn1cc(C(=O)c2ccc3c(c2)OC(c2ccccc2)(c2ccccc2)O3)c2ccccc21 [Example 34] | 264 nM
2 | O=C(O)CCCn1cc(C(=O)c2ccc3c(c2)OC2(CCCc4ccccc42)O3)c2ccccc21 (centres unmarked) [Example 10] | 7.91 nM
3 | O=C(O)CCCn1cc(C(=O)Cc2ccc3c(c2)OC(c2ccccc2)(c2ccccc2)O3)c2ccccc21 [Example 35] | 42.6 nM
4 | CC(C)Cc1ccc(C2(C)Oc3ccc(C(=O)c4cn(CCCC(=O)O)c5ccccc45)cc3O2)cc1 (single isomer, unassigned; (-)) [Example 4, (-)-4-[3-([2-methyl-2-(4-[2-methylpropyl]phenyl)-1,3-benzodioxolan-5-yl]carbonyl)indol-1-yl]butanoic acid] | 10.3 nM
5 | O=C(O)CCCn1cc(C(=O)c2ccc3c(c2)OC(c2ccc(Cl)cc2)(c2ccc(Cl)cc2)O3)c2ccccc21 [Example 6] | 15.6 nM
6 | O=C(O)CCCn1cc(C(=O)c2ccc3c(c2)OC2(CCC(c4ccccc4)C2)O3)c2ccccc21 (centres unmarked) [Example 31] | 5.56 nM
7 | CC(C)Cc1ccc(C2(C)Oc3ccc(C(=O)c4cn(CCCC(=O)O)c5ccccc45)cc3O2)cc1 (racemic) [Example 2, 4-[3-([2-methyl-2-(4-[2-methylpropyl]phenyl)-1,3-benzodioxolan-5-yl]carbonyl)indol-1-yl]butanoic acid] | 11.4 nM
8 | CCCc1ccc(C2(c3ccc(CCC)cc3)Oc3ccc(C(=O)c4cn(CCCC(=O)O)c5ccccc45)cc3O2)cc1 [Example 5] | 33.7 nM
9 | CCCc1ccc(C2(CC)Oc3ccc(C(=O)c4cn(CCCC(=O)O)c5ccccc45)cc3O2)cc1 (centres unmarked) [Example 27] | 1.41 nM
10 | CCCc1ccc(C2(c3ccc(OC)cc3)Oc3ccc(C(=O)c4cn(CCCC(=O)O)c5ccccc45)cc3O2)cc1 (centres unmarked) [Example 45] | 7.84 nM
11 | O=C(O)CCCn1cc(C(=O)Cc2ccc3c(c2)OC(c2ccc(Cl)cc2)(c2ccc(Cl)cc2)O3)c2ccccc21 [Example 37] | 100 nM
12 | CC1(C2CCCCC2)Oc2ccc(C(=O)c3cn(CCCC(=O)O)c4ccccc34)cc2O1 (centres unmarked) [Example 19] | 11 nM
13 | COc1ccc(C2(C)Oc3ccc(C(=O)c4cn(CCCC(=O)O)c5ccccc45)cc3O2)cc1 (centres unmarked) [Example 29] | 3.67 nM
14 | O=C(O)CCCn1cc(C(=O)c2ccc3c(c2)OC(c2ccc(F)cc2)(c2ccc(F)cc2)O3)c2ccccc21 [Example 7] | 10.7 nM
15 | O=C(O)CCCn1cc(C(=O)c2ccc3c(c2)OC(c2cccs2)(c2cccs2)O3)c2ccccc21 [Example 15] | 5.29 nM
16 | O=C(O)CCCn1cc(C(=O)c2ccc3c(c2)OC(c2ccccc2)(c2ccccc2)O3)c2ccccc21 [Example 1] | 2.7 nM
17 | CCCCC1(c2ccc(CCC)cc2)Oc2ccc(C(=O)c3cn(CCCC(=O)O)c4ccccc34)cc2O1 (centres unmarked) [Example 8] | 2.9 nM
18 | CC1(c2ccccc2)Oc2ccc(C(=O)c3cn(CCCC(=O)O)c4ccccc34)cc2O1 (centres unmarked) [Example 14] | 21.1 nM
19 | CC(C)Cc1ccc(C2(C)Oc3ccc(CC(=O)c4cn(CCCC(=O)O)c5ccccc45)cc3O2)cc1 (centres unmarked) [Example 36] | 251 nM
20 | CC1(c2ccc(OCc3ccccc3)cc2)Oc2ccc(C(=O)c3cn(CCCC(=O)O)c4ccccc34)cc2O1 (centres unmarked) [Example 9] | 67.5 nM
21 | Cc1c(C(=O)c2ccc3c(c2)OC(c2ccccc2)(c2ccccc2)O3)c2ccccc2n1CCCC(=O)O [Example 39] | 270 nM
22 | Cc1c(C(=O)c2ccc3c(c2)OC(C)(c2ccc(CC(C)C)cc2)O3)c2ccccc2n1CCCC(=O)O (centres unmarked) [Example 40] | 260 nM

system: mice; test: Toxicity Study, oral administration to mice; assay type: in vivo; settings: up to a dose of 1000 mg/kg, throughout the duration of the study

Row | Structure (SMILES) | appearance and behaviour
23 | CC(C)Cc1ccc(C2(C)Oc3ccc(C(=O)c4cn(CCCC(=O)O)c5ccccc45)cc3O2)cc1 (single isomer, unassigned; (-)) [Example 4, (-)-4-[3-([2-methyl-2-(4-[2-methylpropyl]phenyl)-1,3-benzodioxolan-5-yl]carbonyl)indol-1-yl]butanoic acid] | normal appearance and behaviour
